Patent publication US20220088225A1, “VIRAL TRANSDUCTION USING POLOXAMINES” (SIRION Biotech GmbH, priority 2018, published 2022)

System: A2780 cells
Test: Lentiviral transduction of adherent A2780 cells, Luciferase-expressing lentivirus, luminescence (RLU)
Assay type: cell-based, human
Description: Human ovarian carcinoma cells A2780 (Sigma Aldrich) and human lung adenocarcinoma cells NCl H1838 (ATTC) were grown in RPMI 1640 medium supplemented with 10% (vol/vol) fetal calf serum (FCS; Biochrom) and 2 mM L-glutamine (PAN Biotech).
The lentiviral transduction vectors p-Ubic-Luc2-IRES-Puro and p-CMV-copGFP-IRES-Puro allow expression of Luciferase driven by Ubic promoter or copGFP by CMV promoter, respectively. Replication-defective lentiviral particles were produced by transient co-transduction of HEK293-TN cells in a T75 flask with 10 μg of packaging plasmids pMDL, pVSV-G, pRev (Roche) and 2 μg of transduction vector using Lipofectamine 2000 (Life Technologies) as transduction reagent according to the manufacturer's instructions. […]
To quantify total viral transgene expression by Luciferase, 100 μl Steady-Glo reagent (Promega) was added to the cells 3 days after viral transduction. The plate with the cells was put into a Tecan Infinite M200 plate reader and shaken for 30 seconds. After incubation for 10 minutes at room temperature, luminescence signal was measured by the plate reader. […]
As controls virus only (with H2O instead of adjuvant), or […] Polybrene was added to the wells before transduction. […] Three days post transduction the efficiency of transduction was assessed by measuring luciferase activity on a plate reader. Results are presented in relative luminescence units (RLU). […]

## Protamine sulfate
5 μg/ml Protamine sulfate alone
  increase of total transgene expression compared to virus only: 1.14 fold
40 μg/ml Protamine sulfate alone
  increase of total transgene expression compared to virus only: 2.08 fold
